Results: US20190133128A1, “Fungicidal pyridazinones” (FMC Corporation, priority 2017, published 2019)

Assays:
Assay type in all cases: in vivo
[1] = system: Phytophthora infestans; experiment: whole plant or invertebrate; details: tomato seedlings
[2] = system: Plasmopara viticola; experiment: Test B: preventive spray on grape seedlings, grape downy mildew, disease rating
Source text: General protocol for preparing test solutions for Tests AG: the test compounds were first dissolved in acetone in an amount equal to 3% of the final volume and then suspended at the desired concentration (in ppm) in acetone and purified water (50/50 mix by volume) containing the surfactant PEG400 (polyhydric alcohol esters). The resulting test suspensions were then used in Tests AG. Compounds were sprayed at a concentration of 250 ppm or other indicated rate to the point of run-off on the test plants. The test solution was sprayed to the point of run-off on grape seedlings. […] A dash (-) indicates no test results.

[3] = system: Botrytis cinerea; experiment: Test C: preventive spray on tomato seedlings, gray mold, visual disease rating
Outline: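 Tomato seedlings received a run-off spray, typically 250 ppm (or stated rate), ahead of gray mold inoculation and visual scoring. Test suspensions: acetone stock (3% of volume) diluted into 1:1 acetone/water containing PEG400.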

[4] = system: Phakopsora pachyrhizi; experiment: Test A: preventive spray on soybean seedlings, Asian soybean rust, visual disease rating
[5] = system: Erysiphe graminis f. sp. tritici; experiment: Test G: preventive spray on wheat seedlings, wheat powdery mildew, visual disease rating
Outline: (§1)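 Preventive foliar spray of wheat seedlings to run-off, at 250 ppm or other indicated rate. Compounds dissolved in acetone (3% of final volume), suspended in 50/50 acetone–water with PEG400 surfactant. Disease rated visually.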

[6] = system: Puccinia recondita f. sp. tritici; experiment: Test F: preventive spray on wheat seedlings, wheat leaf rust, visual disease rating
Outline: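 Preventive test: wheat seedlings were sprayed to run-off with compound suspended in acetone/water 50/50 plus PEG400 (250 ppm or other indicated rate). One day later they received Puccinia recondita f. sp. tritici spores, and disease was scored visually.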

[7] = system: Zymoseptoria tritici; experiment: Test E: preventive spray on wheat seedlings, wheat leaf blotch, visual disease rating
Outline: as §1

[8] = 250 ppm, 100 = 100% disease control, 0 = no control

| SMILES | Test D disease control rating [1, 8] [%] | Test B disease control rating [2, 8] [%] | Test C disease control rating [3, 8] [%] | Test A disease control rating [4, 8] [%] | Test G disease control rating [5, 8] [%] | Test F disease control rating [6, 8] [%] | Test E disease control rating [7, 8] [%] | Test D disease control rating ([1]; 50 ppm) [%] | Test B disease control rating ([2]; 50 ppm) [%] | Test C disease control rating ([3]; 50 ppm) [%] | Test A disease control rating ([4]; 50 ppm) [%] | Test G disease control rating ([5]; 50 ppm) [%] | Test F disease control rating ([6]; 50 ppm) [%] | Test E disease control rating ([7]; 50 ppm) [%] |
| --- | --- | --- | --- | --- | --- | --- | --- | --- | --- | --- | --- | --- | --- | --- |
| CON(C)c1cnn(C)c(=O)c1C(=O)Nc1ccc(OC(F)(F)F)cc1 [Compound 135] | 0 | 27 | 0 | 0 | 0 | 0 | 2 |  |  |  |  |  |  |  |
| Cn1ncc(O)c(C(=O)Nc2ccc(F)cc2Cl)c1=O [Compound 134] | 0 | 92 | 0 | 75 | 90 | 32 | 45 |  |  |  |  |  |  |  |
| Cn1ncc(O)c(C(=O)Nc2ccccc2C(F)(F)F)c1=O [Compound 122] | 95 | 98 | 0 | 0 | 96 | 86 | 96 |  |  |  |  |  |  |  |
| CCCC[N+](CCCC)(CCCC)CCCC.Cn1ncc([O-])c(C(=O)Nc2ccc(S(F)(F)(F)(F)F)cc2)c1=O [Compound 143] | 70 | 100 | 0 | 62 | 69 | 94 | 88 |  |  |  |  |  |  |  |
| Cn1ncc(O)c(C(=O)Nc2ccc(C(F)(F)F)cc2C(F)(F)F)c1=O [Compound 147] | 99 | 97 | 0 | 0 | 98 | 99 | 87 |  |  |  |  |  |  |  |
| Cn1ncc([O-])c(C(=O)Nc2ccc(S(F)(F)(F)(F)F)cc2)c1=O.[Na+] [Compound 113] | 81 | 96 | 0 | 73 | 90 | 94 | 79 |  |  |  |  |  |  |  |
| Cn1ncc(S(C)(=O)=O)c(C(=O)Nc2ccc(OC(F)(F)F)cc2)c1=O [Compound 111] | 9 | 0 | 0 | 98 | 0 | 96 | 93 |  |  |  |  |  |  |  |
| Cn1ncc(O)c(C(=O)Nc2cnc(Cl)cn2)c1=O [Compound 114] | 80 | 90 | 0 | 39 | 0 | 95 | 55 |  |  |  |  |  |  |  |
| CNc1cnn(C)c(=O)c1C(=O)Nc1ccc(OC(F)(F)F)cc1 [Compound 146] | 0 | 10 | 0 | 0 | 0 | 0 | 0 |  |  |  |  |  |  |  |
| Cn1ncc(OS(=O)(=O)Cc2ccccc2)c(C(=O)Nc2ccc(OC(F)(F)F)cc2)c1=O [Compound 116] | 0 | 99 | 0 | 25 | 0 | 97 | 60 |  |  |  |  |  |  |  |
| CSc1cnn(C)c(=O)c1C(=O)Nc1ccc(OC(F)(F)F)cc1 [Compound 109] | 0 | 0 | 0 | 0 | 55 | 0 | 0 |  |  |  |  |  |  |  |
| Cn1ncc(O)c(C(=O)Nc2ccc(CC(F)(F)F)cc2)c1=O [Compound 140] | 96 | 100 | 0 | 0 | 27 | 99 | 88 |  |  |  |  |  |  |  |
| COC(=O)c1ccc(NC(=O)c2c(O)cnn(C)c2=O)cc1 [Compound 121] | 99 | 86 | 0 | 0 | 0 | 80 | 14 |  |  |  |  |  |  |  |
| Cn1ncc(O)c(C(=O)Nc2ccc(Cl)cc2F)c1=O [Compound 123] | 90 | 90 | 63 | 81 | 92 | 100 | 91 |  |  |  |  |  |  |  |
| CONc1cnn(C)c(=O)c1C(=O)Nc1ccc(OC(F)(F)F)cc1 [Compound 127] | 0 | 23 | 0 | 0 | 0 | 0 | 27 |  |  |  |  |  |  |  |
| Cn1ncc(O)c(C(=O)Nc2ccc(OC(F)(F)F)cc2Cl)c1=O [Compound 142] | 92 | 99 | 26 | 71 | 98 | 99 | 77 |  |  |  |  |  |  |  |
| Cn1ncc(OC/C=C/c2ccccc2)c(C(=O)Nc2ccc(OC(F)(F)F)cc2)c1=O [Compound 132] | 17 | 25 | 0 | 0 | 97 | 91 | 50 |  |  |  |  |  |  |  |
| CN(C)c1cnn(C)c(=O)c1C(=O)Nc1ccc(C(F)(F)F)cc1F [Compound 128] | 67 | 100 | 0 | 79 | 0 | 68 |  |  |  |  |  |  |  |  |
| Cn1ncc([S+](C)[O-])c(C(=O)Nc2ccc(OC(F)(F)F)cc2)c1=O (stereo not shown) [Compound 110] |  |  |  |  |  |  |  | 0 | 0 | 0 | 92 | 0 | 74 | 88 |
| Cn1ncc(O)c(C(=O)Nc2ccc(C(F)(F)F)cc2Cl)c1=O [Compound 137] | 97 | 100 | 0 | 0 | 47 | 96 | 30 |  |  |  |  |  |  |  |
